# pEC50: −log10 of the molar value.
# How the values were obtained:
# [1] = Metabolic stability in human liver microsomes assessed as intrinsic clearance at 1 uM measured per mg protein upto 40 mins; type: ADME, Microsome; details: read-out: CLH
# [2] = Metabolic stability in NMRI mouse liver microsomes assessed as intrinsic clearance at 1 uM measured per mg protein upto 40 mins; type: ADME, Microsome; details: read-out: CLH
# [3] = Metabolic stability in Wistar rat liver microsomes assessed as intrinsic clearance at 1 uM measured per mg protein upto 40 mins; type: ADME, Microsome; details: read-out: CLH
# [4] = Kinetic solubility of compound; type: physicochemical; details: read-out: Kinetic_solubility
# [5] = biological target: T1, Neuronal acetylcholine receptor subunit alpha-7 (Homo sapiens, UniProt P36544); assay: Positive allosteric modulator activity at human alpha7 nAChR expressed in Flp-In-HEK293 cells co-expressing RIC-3 assessed as potentiation of PNU282987-induced calcium influx measured after 10 mins by FLIPR assay; type: cell-based, Flp-In-293; details: for EC50: flp-in-293; for pEC50: read-out: EC50
# [6] = Mutagenicity in Salmonella typhimurium TA1537 in presence of rat liver S9 fraction by AMES test; type: toxicity, subcellular; details: salmonella enterica subsp. enterica serovar typhimurium
# [7] = Mutagenicity in Salmonella typhimurium TA100 in presence of rat liver S9 fraction by AMES test; type: toxicity, subcellular; details: salmonella enterica subsp. enterica serovar typhimurium
# [8] = Mutagenicity in Escherichia coli WP2 uvrA in absence of rat liver S9 fraction by AMES test; type: toxicity
# [9] = Mutagenicity in Salmonella typhimurium TA100 in absence of rat liver S9 fraction by AMES test; type: toxicity; details: salmonella enterica subsp. enterica serovar typhimurium
# [10] = Mutagenicity in Salmonella typhimurium TA98 in presence of rat liver S9 fraction by AMES test; type: toxicity, subcellular; details: salmonella enterica subsp. enterica serovar typhimurium
# [11] = Mutagenicity in Salmonella typhimurium TA1535 in absence of rat liver S9 fraction by AMES test; type: toxicity; details: salmonella enterica subsp. enterica serovar typhimurium
# [12] = Mutagenicity in Salmonella typhimurium TA1537 in absence of rat liver S9 fraction by AMES test; type: toxicity; details: salmonella enterica subsp. enterica serovar typhimurium
# [13] = Mutagenicity in Escherichia coli WP2 uvrA in presence of rat liver S9 fraction by AMES test; type: toxicity, subcellular
# [14] = Mutagenicity in Salmonella typhimurium TA1535 in presence of rat liver S9 fraction by AMES test; type: toxicity, subcellular; details: salmonella enterica subsp. enterica serovar typhimurium
# [15] = Mutagenicity in Salmonella typhimurium TA98 in absence of rat liver S9 fraction by AMES test; type: toxicity; details: salmonella enterica subsp. enterica serovar typhimurium
# [16] = biological target: T1, Neuronal acetylcholine receptor subunit alpha-7; assay: Positive allosteric modulator activity at human alpha7 nAChR expressed in Flp-In-HEK293 cells co-expressing RIC-3 assessed as potentiation of PNU282987-induced calcium influx at 10 uM measured after 10 mins by FLIPR assay; type: cell-based
# [17] = Flp-In-293, filed as positive allosteric modulator
# T1 sequence (P36544 whole entry): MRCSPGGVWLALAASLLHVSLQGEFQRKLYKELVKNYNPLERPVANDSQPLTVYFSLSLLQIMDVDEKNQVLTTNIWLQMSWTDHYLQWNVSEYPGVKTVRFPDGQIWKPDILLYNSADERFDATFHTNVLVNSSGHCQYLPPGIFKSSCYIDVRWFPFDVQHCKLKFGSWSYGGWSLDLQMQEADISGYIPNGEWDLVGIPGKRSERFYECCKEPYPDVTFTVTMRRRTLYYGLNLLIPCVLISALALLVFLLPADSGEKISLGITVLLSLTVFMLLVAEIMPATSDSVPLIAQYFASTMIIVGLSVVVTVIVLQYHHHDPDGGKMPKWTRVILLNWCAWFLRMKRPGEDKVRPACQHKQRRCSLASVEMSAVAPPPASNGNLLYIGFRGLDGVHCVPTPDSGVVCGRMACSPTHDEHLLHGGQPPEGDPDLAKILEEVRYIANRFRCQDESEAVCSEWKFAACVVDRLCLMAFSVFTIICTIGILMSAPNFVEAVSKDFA
structure (smiles),measurement,setting,value
Cc1ccc(OC2CC3CCC(C2)N3C(=O)C(=O)Nc2ccc3[nH]ccc3c2)cc1 (stereo not drawn),microsomal CLint at 1 µM,[1],12 µL/min/mg
same,microsomal CLint at 1 µM,[2],40 µL/min/mg
same,microsomal CLint at 1 µM,[3],61 µL/min/mg
same,solubility kinetic,[4],8.1 µM
same,EC50,[5],Not Active
Cc1ccc(CN2CCN(C(=O)C(=O)Nc3cc4ccn(C)c4cc3F)CC2)cc1,Activity,[6],Toxic
same,Activity,[7],Toxic
same,Activity,[8],Toxic
same,Activity,[9],Toxic
same,solubility kinetic,[4],47.1 µM
same,Activity,[10],Toxic
same,Activity,[11],Toxic
same,Activity,[12],Toxic
same,Activity,[13],Toxic
same,Activity,[14],Toxic
same,Activity,[15],Toxic
same,pEC50,[5],6.05
Cc1ccc(CN2CCN(C(=O)C(=O)NCc3ccc4c(ccn4C)c3)CC2)cc1,EC50,[5],Not Active
Cc1ccc(CC2CCN(C(=O)NC(=O)c3ccc4c(ccn4C)c3)CC2)cc1,Activity,[16]; Flp-In-293,37%
Cc1ccc(OCC2CN(C(=O)C(=O)Nc3ccc4c(ccn4C)c3)C2)cc1,pEC50,[5],5.52
Cc1ccc(CC2CCN(C(=O)C(=O)Nc3ccc4[nH]ccc4c3)CC2)cc1,pEC50,[5],6.04
Cc1ccc(CN2CCN(C(=O)NCc3ccc4c(ccn4C)c3)CC2)cc1,microsomal CLint at 1 µM,[1],24 µL/min/mg
same,solubility kinetic,[4],18.9 µM
same,pEC50,[5],6.31
Cc1ccc(OC2CCN(C(=O)C(=O)Nc3ccc4[nH]ccc4c3)CC2)cc1,pEC50,[5],6.59
Cc1ccc(CN2CCN(C(=O)C(=O)Nc3ccc4c(c3)c(C)cn4C)CC2)cc1,Activity,[6],Toxic
same,Activity,[7],Toxic
same,microsomal CLint at 1 µM,[1],17 µL/min/mg
same,Activity,[8],Toxic
same,microsomal CLint at 1 µM,[2],198 µL/min/mg
same,Activity,[9],Toxic
same,microsomal CLint at 1 µM,[3],140 µL/min/mg
same,solubility kinetic,[4],5 µM
same,Activity,[10],Toxic
same,Activity,[11],Toxic
same,Activity,[12],Toxic
same,Activity,[13],Toxic
same,Activity,[14],Toxic
same,Activity,[15],Toxic
same,pEC50,[5],6.04
Cc1ccc(CN2CCC(c3nnc(C(=O)Nc4ccc5c(ccn5C)c4)o3)CC2)cc1,EC50,[5],Not Active
Cc1ccc(OC2CN(C(=O)NCc3ccc4c(ccn4C)c3)C2)cc1,pEC50,[5],6.21
Cc1ccc(CN2CCN(C(=O)C(=O)Nc3ccc4c(c3)c(Cl)cn4C)CC2)cc1,Activity,[6],Toxic
same,Activity,[7],Toxic
same,Activity,[8],Toxic
same,Activity,[9],Toxic
same,solubility kinetic,[4],6.8 µM
same,Activity,[10],Toxic
same,Activity,[11],Toxic
same,Activity,[12],Toxic
same,Activity,[13],Toxic
same,Activity,[14],Toxic
same,Activity,[15],Toxic
same,pEC50,[5],6.38
Cn1nc(-c2ccc3c(ccn3C)c2)cc1C(=O)N1CCN(Cc2ccc(Cl)cc2)CC1,pEC50,[5],5.60
COc1ccc(OCC2CN(C(=O)NCc3ccc4c(ccn4C)c3)C2)cc1,pEC50,[5],7.22
Cn1ccc2cc(CNC(=O)N3CC(COc4ccc(C(F)(F)F)cc4)C3)ccc21,pEC50,[5],7.10
Cn1ccc2cc(NC(=O)C(=O)c3cnn(Cc4ccc(Cl)cc4)c3)ccc21,solubility kinetic,[4],3 µM
same,Activity,[16]; [17],52%
Cc1ccc(CN2CCN(C(=O)C(=O)Cc3ccc4c(ccn4C)c3)CC2)cc1,Activity,[16]; Flp-In-293,7%
Cn1ccc2cc(NC(=O)C(=O)c3cnc(Oc4ccc(Cl)cc4)s3)ccc21,solubility kinetic,[4],0.1 µM
same,EC50,[5],Not Active
Cc1ccc(CN2CCC(C(=O)C(=O)Nc3ccc4c(ccn4C)c3)CC2)cc1,pEC50,[5],6.22
Cc1ccc(CN2CCN(C(=O)C(=O)Nc3cnc4c(c3)c(F)cn4C)CC2)cc1,microsomal CLint at 1 µM,[1],12 µL/min/mg
same,microsomal CLint at 1 µM,[2],39 µL/min/mg
same,microsomal CLint at 1 µM,[3],41 µL/min/mg
same,pEC50,[5],6.68
Cn1ccc2cc(CNC(=O)N3CC(COc4ccc(C#N)cc4)C3)ccc21,pEC50,[5],6.46
Cc1ccc(OCC2CN(C(=O)NCc3ccc4c(ccn4C)c3)C2)cc1,pEC50,[5],7.40
Cc1ccc(CC2CCN(C(=O)C(=O)Nc3ccc4[nH]c(C)cc4c3)CC2)cc1,EC50,[5],Not Active
Cc1ccc(OCC2CCN(C(=O)NCc3ccc4c(ccn4C)c3)C2)cc1 (stereo not drawn),pEC50,[5],6.55
Cc1ccc(Oc2ccc(C(=O)NCc3ccc4c(ccn4C)c3)cc2)cc1,pEC50,[5],7.40
Cc1ccc(Oc2ccc(C(=O)C(=O)Nc3ccc4c(ccn4C)c3)cc2)cc1,microsomal CLint at 1 µM,[1],34 µL/min/mg
same,microsomal CLint at 1 µM,[2],46 µL/min/mg
same,microsomal CLint at 1 µM,[3],48 µL/min/mg
same,solubility kinetic,[4],2 µM
same,pEC50,[5],7.22
COCC(C(=O)Nc1ccc2c(ccn2C)c1)N1CCC(Oc2ccc(C)cc2)CC1 (stereo not drawn),EC50,[5],Not Active
Cn1ccc2cc(CNC(=O)N3CC(COc4ccc(OC(F)(F)F)cc4)C3)ccc21,pEC50,[5],7.60
Cc1ccc(OC2CCN(C(=O)NCc3ccc4c(ccn4C)c3)C2)cc1 (stereo not drawn),pEC50,[5],6.77
Cc1ccc(CN2C[C@@H](C)N(C(=O)C(=O)Nc3ccc4[nH]ccc4c3)C[C@@H]2C)cc1,microsomal CLint at 1 µM,[1],2 µL/min/mg
same,solubility kinetic,[4],14.9 µM
same,EC50,[5],Not Active
Cc1ccc(CN2CCN(C(=O)C(=O)Nc3cnc4c(ccn4C)c3)CC2)cc1,microsomal CLint at 1 µM,[1],0.3 µL/min/mg
same,microsomal CLint at 1 µM,[2],46 µL/min/mg
same,microsomal CLint at 1 µM,[3],56 µL/min/mg
same,solubility kinetic,[4],47.4 µM
same,pEC50,[5],6.40
Cc1ccc(OC2CN(C(=O)C(=O)Nc3ccc4c(ccn4C)c3)C2)cc1,Activity,[16]; [17],47%
Cc1ccc(O[C@H]2CC[C@H](C(=O)C(=O)Nc3ccc4c(ccn4C)c3)CC2)cn1,pEC50,[5],6.17
Cn1ccc2cc(CNC(=O)N3CC(COc4ccc(Cl)cc4)C3)ccc21,pEC50,[5],7.26
Cc1ccc(CN2CCN(C(=O)C(=O)Nc3ccc4c(F)cn(C)c4c3)CC2)cc1,Activity,[6],Toxic
same,Activity,[7],Toxic
same,Activity,[8],Toxic
same,Activity,[9],Toxic
same,solubility kinetic,[4],12.5 µM
same,Activity,[10],Toxic
same,Activity,[11],Toxic
same,Activity,[12],Toxic
same,Activity,[13],Toxic
same,Activity,[14],Toxic
same,Activity,[15],Toxic
same,pEC50,[5],5.85
Cc1ccc(CN2CCN(C(=O)C(=O)Nc3ccn4cccc4c3)CC2)cc1,solubility kinetic,[4],5.6 µM
same,pEC50,[5],5.48
Cc1ccc(CN2CCN(C(=O)C(=O)Nc3cc(F)c4[nH]ccc4c3)CC2)cc1,Activity,[6],Toxic
same,Activity,[7],Toxic
same,microsomal CLint at 1 µM,[1],17 µL/min/mg
same,Activity,[8],Toxic
same,microsomal CLint at 1 µM,[2],151 µL/min/mg
same,Activity,[9],Toxic
same,microsomal CLint at 1 µM,[3],130 µL/min/mg
same,solubility kinetic,[4],42.7 µM
same,Activity,[10],Toxic
same,Activity,[11],Toxic
same,Activity,[12],Toxic
same,Activity,[13],Toxic
same,Activity,[14],Toxic
same,Activity,[15],Toxic
same,pEC50,[5],6.96
Cc1ccc(Oc2cnc(C(=O)C(=O)Nc3ccc4c(ccn4C)c3)cn2)cc1,microsomal CLint at 1 µM,[1],90 µL/min/mg
same,microsomal CLint at 1 µM,[2],156 µL/min/mg
same,microsomal CLint at 1 µM,[3],127 µL/min/mg
same,solubility kinetic,[4],10 µM
same,pEC50,[5],6.19
Cc1ccc(CN2CCN(C(=O)C(=O)Nc3ccc4c(c3)CCN4C)CC2)cc1,microsomal CLint at 1 µM,[1],71 µL/min/mg
same,microsomal CLint at 1 µM,[2],18 µL/min/mg
same,microsomal CLint at 1 µM,[3],23 µL/min/mg
same,solubility kinetic,[4],95 µM
same,pEC50,[5],6.09
Cc1ccc(CN2CCN(C(=O)c3nnc(-c4cccc5c4ccn5C)o3)CC2)cc1,pEC50,[5],6.18
Cn1ccc2cc(CNC(=O)N3CC(COc4ccccc4)C3)ccc21,pEC50,[5],6.74
Cc1ccc(CN2CCCC(C(=O)NCc3ccc4c(ccn4C)c3)C2)cc1 (stereo not drawn),EC50,[5],Not Active
Cc1ccc(CN2CCC(NC(=O)Nc3ccc4c(ccn4C)c3)CC2)cc1,EC50,[5],Not Active
Cc1ccc(CN2CCN(C(=O)C(=O)Nc3ccc4[nH]c(C)c(C)c4c3)CC2)cc1,Activity,[6],Toxic
same,Activity,[7],Toxic
same,microsomal CLint at 1 µM,[1],13 µL/min/mg
same,Activity,[8],Toxic
same,microsomal CLint at 1 µM,[2],151 µL/min/mg
same,Activity,[9],Toxic
same,microsomal CLint at 1 µM,[3],56 µL/min/mg
same,solubility kinetic,[4],23 µM
same,Activity,[10],Toxic
same,Activity,[11],Toxic
same,Activity,[12],Toxic
same,Activity,[13],Toxic
same,Activity,[14],Toxic
same,Activity,[16]; Flp-In-293,10%
same,Activity,[15],Toxic
Cc1ccc(CN2CCC(C(=O)NCc3ccc4c(ccn4C)c3)CC2)cc1,Activity,[16]; Flp-In-293,12%
Cc1ccc(OC2CCN(C(=O)C(=O)Nc3ccc4c(ccn4C)c3)C2)cc1 (stereo not drawn),Activity,[16]; Flp-In-293,25%
Cn1ccc2cc(CNC(=O)N3CC(COc4ccc(F)cc4)C3)ccc21,pEC50,[5],6.66
Cc1ccc(CN2CCN(C(=O)C(=O)Nc3ccc4c(c3)c(F)cn4C)CC2)cc1,Activity,[6],Toxic
same,Activity,[7],Toxic
same,microsomal CLint at 1 µM,[1],21 µL/min/mg
same,Activity,[8],Toxic
same,microsomal CLint at 1 µM,[2],214 µL/min/mg
same,Activity,[9],Toxic
same,microsomal CLint at 1 µM,[3],192 µL/min/mg
same,solubility kinetic,[4],16.5 µM
same,Activity,[10],Toxic
same,Activity,[11],Toxic
same,Activity,[12],Toxic
same,Activity,[13],Toxic
same,Activity,[14],Toxic
same,Activity,[15],Toxic
same,pEC50,[5],7.07
Cc1ccc(OC2CCN(C(=O)NCc3ccc4c(ccn4C)c3)CC2)cc1,pEC50,[5],6.68
